Data as given in PMC4303209, “A novel phosphatidylinositol 3-kinase (PI3K) inhibitor directs a potent FOXO-dependent, p53-independent cell cycle arrest phenotype characterized by the differential induction of a subset of FOXO-regulated genes” (Breast Cancer Research : BCR, 2014).

Test system: MCF-7 breast cancer cells
Assay: Microarray gene expression analysis (Agilent whole human genome 4 x 44K; compound vs DMSO, LIMMA log2 fold change)
Format: cell-based
Settings: cell cycle genes

Cn1ncc2c(N3CCOCC3)nc(-c3cccc(O)c3)nc21 [ETP-45658]
TUBB3 log2FC (Gene 10381): -0.638
ANAPC10 log2FC (Gene 10393): 0.516
NDRG1 log2FC (Gene 10397): 1.084
GNB2L1 log2FC (Gene 10399): -0.052
PRMT5 log2FC (Gene 10419): -0.043
MAD2L2 log2FC (Gene 10459): -0.088
TACC3 log2FC (Gene 10460): -0.430
CREB3 log2FC (Gene 10488): -0.118
MYBBP1A log2FC (Gene 10514): -0.538
CIB1 log2FC (Gene 10519): -0.090
SSSCA1 log2FC (Gene 10534): -0.330
DCTN2 log2FC (Gene 10540): 0.043
SMC2 log2FC (Gene 10592): 0.719
ERN2 log2FC (Gene 10595): -0.829
USP16 log2FC (Gene 10600): 0.971
HEXIM1 log2FC (Gene 10614): -0.354
SPAG5 log2FC (Gene 10615): 0.309
STAMBP log2FC (Gene 10617): 0.425
TXNIP log2FC (Gene 10628): 2.131
PDPN log2FC (Gene 10630): -0.069
RGS14 log2FC (Gene 10636): 0.556
CTCF log2FC (Gene 10664): -0.082
CGRRF1 log2FC (Gene 10668): 0.871
CGREF1 log2FC (Gene 10669): -0.152
USP39 log2FC (Gene 10713): 0.041
NUDC log2FC (Gene 10726): -0.412
PLK4 log2FC (Gene 10733): 0.611
STAG3 log2FC (Gene 10734): 0.527
STAG2 log2FC (Gene 10735): 1.297
NES log2FC (Gene 10763): -0.458
PLK2 log2FC (Gene 10769): -0.887
NEK6 log2FC (Gene 10783): -0.620
SDCCAG8 log2FC (Gene 10806): 0.654
TUBGCP2 log2FC (Gene 10844): -0.131
LILRB1 log2FC (Gene 10859): -0.164
USP19 log2FC (Gene 10869): 0.174
BLCAP log2FC (Gene 10904): -0.662
TXNL4A log2FC (Gene 10907): -0.510
SUGT1 log2FC (Gene 10910): 0.410
GADD45G log2FC (Gene 10912): -0.067
EHMT2 log2FC (Gene 10919): 0.089
BTG3 log2FC (Gene 10950): -0.035
MAPRE2 log2FC (Gene 10982): -0.284
KIF2C log2FC (Gene 11004): 0.489
TLK2 log2FC (Gene 11011): 0.607
RAB35 log2FC (Gene 11021): -0.457
TDRKH log2FC (Gene 11022): 0.089
PIM2 log2FC (Gene 11040): -0.863
UBE2C log2FC (Gene 11065): -0.393
TRIOBP log2FC (Gene 11078): 0.398
NUPL2 log2FC (Gene 11097): 0.144
KATNA1 log2FC (Gene 11104): 0.716
PRDM4 log2FC (Gene 11108): 0.462
CIT log2FC (Gene 11113): 0.376
ZWINT log2FC (Gene 11130): -0.088
CDC37 log2FC (Gene 11140): -0.282
LZTS1 log2FC (Gene 11178): -0.979
WDR6 log2FC (Gene 11180): -0.468
RASSF1 log2FC (Gene 11186): 1.482
CEP250 log2FC (Gene 11190): -0.206
PMF1 log2FC (Gene 11243): -0.207
DCTN3 log2FC (Gene 11258): 0.235
TUSC2 log2FC (Gene 11334): -0.766
OIP5 log2FC (Gene 11339): 0.202
MAPRE1 log2FC (Gene 22919): -0.363
MAPRE3 log2FC (Gene 22924): 0.034
TRIM32 log2FC (Gene 22954): -0.374
TPX2 log2FC (Gene 22974): 0.049
AZI1 log2FC (Gene 22994): 0.520
CEP152 log2FC (Gene 22995): 0.685
USP33 log2FC (Gene 23032): 1.045
WAPAL log2FC (Gene 23063): 0.789
TRIM35 log2FC (Gene 23087): 0.473
CLASP2 log2FC (Gene 23122): 0.610
POGZ log2FC (Gene 23126): 0.396
PHF8 log2FC (Gene 23133): -0.483
SMC5 log2FC (Gene 23137): -0.109
FBXL7 log2FC (Gene 23194): -0.171
PSME4 log2FC (Gene 23198): 0.174
RRS1 log2FC (Gene 23212): -0.840
NUP210 log2FC (Gene 23225): -0.548
PLCB1 log2FC (Gene 23236): 1.212
BOP1 log2FC (Gene 23246): -0.416
NUP160 log2FC (Gene 23279): -0.451
FBXW11 log2FC (Gene 23291): -0.357
UBR2 log2FC (Gene 23304): 0.788
USP22 log2FC (Gene 23326): 0.274
CLASP1 log2FC (Gene 23332): -0.307
PPP1R13B log2FC (Gene 23368): 0.098
DICER1 log2FC (Gene 23405): -0.887
SIRT1 log2FC (Gene 23411): 1.263
ITGB3BP log2FC (Gene 23421): 0.773
PES1 log2FC (Gene 23481): -0.445
ZFYVE26 log2FC (Gene 23503): 0.361
SCRIB log2FC (Gene 23513): -0.165
CCNDBP1 log2FC (Gene 23582): 0.710
CD2AP log2FC (Gene 23607): 0.637
NUP62 log2FC (Gene 23636): -0.576
RABGAP1 log2FC (Gene 23637): 0.485
PPP1R15A log2FC (Gene 23645): 1.011
POLA2 log2FC (Gene 23649): -0.863
ZNF318 log2FC (Gene 24149): 0.346
RAD54B log2FC (Gene 25788): 0.549
NIPBL log2FC (Gene 25836): 0.842
INTS7 log2FC (Gene 25896): 0.076
AHCTF1 log2FC (Gene 25909): 0.469
SIN3A log2FC (Gene 25942): 0.788
SH2B1 log2FC (Gene 25970): -0.484
EGFL6 log2FC (Gene 25975): 0.028
SENP6 log2FC (Gene 26054): 0.596
FBXO6 log2FC (Gene 26270): 0.322
FBXO5 log2FC (Gene 26271): 0.498
NUPR1 log2FC (Gene 26471): 0.023
AATF log2FC (Gene 26574): -0.362
CKAP2 log2FC (Gene 26586): 0.829
HBP1 log2FC (Gene 26959): 3.023
MLH3 log2FC (Gene 27030): 0.187
MTBP log2FC (Gene 27085): 0.847
TJP3 log2FC (Gene 27134): 0.162
VPS4A log2FC (Gene 27183): -0.366
PDCD4 log2FC (Gene 27250): 1.281
APEX2 log2FC (Gene 27301): -0.875
UBE2S log2FC (Gene 27338): -0.678
EML4 log2FC (Gene 27436): -0.240
PPP2R3B log2FC (Gene 28227): -0.106
MCTS1 log2FC (Gene 28985): -0.243
HIPK2 log2FC (Gene 28996): -0.166
BRD7 log2FC (Gene 29117): 0.662
RACGAP1 log2FC (Gene 29127): 0.627
UHRF1 log2FC (Gene 29128): -0.406
PSMC3IP log2FC (Gene 29893): 0.342
GPSM2 log2FC (Gene 29899): 0.274
SAC3D1 log2FC (Gene 29901): 0.069
RPA4 log2FC (Gene 29935): -0.445
ANAPC4 log2FC (Gene 29945): 0.654
SERTAD1 log2FC (Gene 29950): -1.280
CUZD1 log2FC (Gene 50624): 0.419
PARD6A log2FC (Gene 50855): -0.204
GMNN log2FC (Gene 51053): 0.163
RPS27L log2FC (Gene 51065): 0.265
MLXIPL log2FC (Gene 51085): 0.256
SBDS log2FC (Gene 51119): 0.607
DYNC1LI1 log2FC (Gene 51143): 0.709
ING4 log2FC (Gene 51147): 1.465
TUBE1 log2FC (Gene 51175): 0.231
LEF1 log2FC (Gene 51176): -0.842
HERC5 log2FC (Gene 51191): 0.711
NUSAP1 log2FC (Gene 51203): 0.849
DUSP13 log2FC (Gene 51207): -0.060
WAC log2FC (Gene 51322): 0.945
DACT1 log2FC (Gene 51339): 0.045
FZR1 log2FC (Gene 51343): -0.538
TAOK3 log2FC (Gene 51347): 1.243
PRKAG2 log2FC (Gene 51422): -0.498
SNX9 log2FC (Gene 51429): 0.822
ANAPC7 log2FC (Gene 51434): -0.070
LCMT1 log2FC (Gene 51451): -0.115
